# ChEMBL document CHEMBL1201862, “PubChem BioAssay data set” (2004)
#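 The compound was tested at five concentrations on cells cultured in 96-well plates, with a 48-hour exposure period. Here, GI50 denotes the concentration required for 50% inhibition of growth.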 The source made the active and inactive calls. Cut-off read from the data, not from the text of the source: active = GI50 up to about 1.1 µM and inactive = higher.
# Experiments:
# Assay in all cases: NCI-60 cell line screen, 48 h
# OVCAR-3 = system: OVCAR-3
# OVCAR-4 = system: OVCAR-4
# IGROV-1 = system: IGROV-1
# HT-29 = system: HT-29
# SK-MEL-28 = system: SK-MEL-28
# SNB-75 = system: SNB-75
# LOX IMVI = system: LOX IMVI
# U-251 = system: U-251
# SNB-19 = system: SNB-19
# SF-539 = system: SF-539
# NCI-H522 = system: NCI-H522
# DU-145 = system: DU-145
# PC-3 = system: PC-3
# SK-MEL-5 = system: SK-MEL-5
# UACC-62 = system: UACC-62
# NCI-H226 = system: NCI-H226
# CAKI-1 = system: CAKI-1
# SF-268 = system: SF-268
# SN12C = system: SN12C
# MDA-N = system: MDA-N
# K562 = system: K562
# BT-549 = system: BT-549
# HCT-15 = system: HCT-15
# HCT-116 = system: HCT-116
# A549 = system: A549
# A498 = system: A498
# UO-31 = system: UO-31
# NCI-H460 = system: NCI-H460
# MDA-MB-435 = system: MDA-MB-435
# M14 = system: M14
# OVCAR-5 = system: OVCAR-5
# CCRF-CEM = system: CCRF-CEM
# KM12 = system: KM12
# SR = system: SR
# NCI-H23 = system: NCI-H23
# EKVX = system: EKVX
# HL-60 = system: HL-60
# HOP-62 = system: HOP-62
# Malme-3M = system: Malme-3M
# SK-MEL-2 = system: SK-MEL-2
# TK-10 = system: TK-10
# MDA-MB-231 = system: MDA-MB-231
# NCI/ADR-RES = system: NCI/ADR-RES
# ACHN = system: ACHN
# MOLT-4 = system: MOLT-4
# T47D = system: T47D
# COLO 205 = system: COLO 205
# HCC 2998 = system: HCC 2998
# SW-620 = system: SW-620
# MCF7 = system: MCF7
# 786-0 = system: 786-0
# SF-295 = system: SF-295
# OVCAR-8 = system: OVCAR-8
# Hs-578T = system: Hs-578T
# SK-OV-3 = system: SK-OV-3
# RPMI-8226 = system: RPMI-8226
# UACC-257 = system: UACC-257
# HOP-92 = system: HOP-92
structure (smiles),measurement,setting,value
CC(C)(C)c1ccc(C(O)(c2ccc(C(C)(C)C)cc2)c2ccc(C(C)(C)C)cc2)cc1,GI50,OVCAR-3,> 100 µM (inactive)
same,GI50,OVCAR-4,> 100 µM (inactive)
same,GI50,IGROV-1,> 100 µM (inactive)
same,GI50,HT-29,> 100 µM (inactive)
same,GI50,SK-MEL-28,> 100 µM (inactive)
same,GI50,SNB-75,> 100 µM (inactive)
same,GI50,LOX IMVI,> 100 µM (inactive)
same,GI50,U-251,> 100 µM (inactive)
same,GI50,SNB-19,> 100 µM (inactive)
same,GI50,SF-539,> 100 µM (inactive)
same,GI50,NCI-H522,> 100 µM (inactive)
same,GI50,DU-145,> 100 µM (inactive)
same,GI50,PC-3,> 100 µM (inactive)
same,GI50,SK-MEL-5,> 100 µM (inactive)
same,GI50,UACC-62,> 100 µM (inactive)
same,GI50,NCI-H226,> 100 µM (inactive)
same,GI50,CAKI-1,> 100 µM (inactive)
same,GI50,SF-268,> 100 µM (inactive)
same,GI50,SN12C,> 100 µM (inactive)
same,GI50,MDA-N,> 100 µM (inactive)
same,GI50,K562,> 100 µM (inactive)
same,GI50,BT-549,> 100 µM (inactive)
same,GI50,HCT-15,> 100 µM
same,GI50,HCT-116,> 100 µM (inactive)
same,GI50,A549,> 100 µM (inactive)
same,GI50,A498,> 100 µM (inactive)
same,GI50,UO-31,> 100 µM (inactive)
same,GI50,NCI-H460,> 100 µM (inactive)
same,GI50,MDA-MB-435,> 100 µM (inactive)
same,GI50,M14,> 100 µM (inactive)
same,GI50,OVCAR-5,> 100 µM (inactive)
same,GI50,CCRF-CEM,> 100 µM (inactive)
same,GI50,KM12,> 100 µM (inactive)
same,GI50,SR,> 100 µM (inactive)
same,GI50,NCI-H23,> 100 µM (inactive)
same,GI50,EKVX,> 100 µM (inactive)
same,GI50,HL-60,> 100 µM (inactive)
same,GI50,HOP-62,> 100 µM (inactive)
same,GI50,Malme-3M,6.92 µM (inactive)
same,GI50,SK-MEL-2,> 100 µM (inactive)
same,GI50,TK-10,> 100 µM (inactive)
same,GI50,MDA-MB-231,> 100 µM (inactive)
same,GI50,NCI/ADR-RES,> 100 µM (inactive)
same,GI50,ACHN,> 100 µM (inactive)
same,GI50,MOLT-4,> 100 µM (inactive)
same,GI50,T47D,> 100 µM (inactive)
same,GI50,COLO 205,> 100 µM (inactive)
same,GI50,HCC 2998,> 100 µM (inactive)
same,GI50,SW-620,> 100 µM (inactive)
same,GI50,MCF7,> 100 µM (inactive)
same,GI50,786-0,> 100 µM (inactive)
same,GI50,SF-295,> 100 µM (inactive)
same,GI50,OVCAR-8,> 100 µM (inactive)
same,GI50,Hs-578T,70.5 µM (inactive)
same,GI50,SK-OV-3,> 100 µM (inactive)
same,GI50,RPMI-8226,52.2 µM (inactive)
COC(=O)C1CCC(=O)N1C(c1ccccc1)c1ccc(OC)c(OC)c1 (centres undefined),GI50,OVCAR-3,> 100 µM (inactive)
same,GI50,OVCAR-4,> 100 µM (inactive)
same,GI50,IGROV-1,> 100 µM (inactive)
same,GI50,HT-29,> 100 µM (inactive)
same,GI50,SK-MEL-28,> 100 µM (inactive)
same,GI50,SNB-75,15.7 µM (inactive)
same,GI50,LOX IMVI,> 100 µM (inactive)
same,GI50,U-251,> 100 µM (inactive)
same,GI50,SNB-19,> 100 µM (inactive)
same,GI50,SF-539,> 100 µM (inactive)
same,GI50,NCI-H522,> 100 µM (inactive)
same,GI50,DU-145,> 100 µM (inactive)
same,GI50,PC-3,> 100 µM (inactive)
same,GI50,UACC-257,> 100 µM (inactive)
same,GI50,SK-MEL-5,> 100 µM (inactive)
same,GI50,UACC-62,> 100 µM (inactive)
same,GI50,NCI-H226,> 100 µM (inactive)
same,GI50,CAKI-1,> 100 µM (inactive)
same,GI50,SF-268,> 100 µM (inactive)
same,GI50,SN12C,> 100 µM (inactive)
same,GI50,MDA-N,> 100 µM (inactive)
same,GI50,K562,> 100 µM (inactive)
same,GI50,BT-549,> 100 µM (inactive)
same,GI50,HCT-15,> 100 µM
same,GI50,HCT-116,> 100 µM (inactive)
same,GI50,A549,> 100 µM (inactive)
same,GI50,A498,> 100 µM (inactive)
same,GI50,UO-31,> 100 µM (inactive)
same,GI50,NCI-H460,> 100 µM (inactive)
same,GI50,MDA-MB-435,> 100 µM (inactive)
same,GI50,M14,> 100 µM (inactive)
same,GI50,OVCAR-5,> 100 µM (inactive)
same,GI50,CCRF-CEM,> 10 µM (inactive)
same,GI50,KM12,> 100 µM (inactive)
same,GI50,SR,> 100 µM (inactive)
same,GI50,NCI-H23,> 100 µM (inactive)
same,GI50,EKVX,> 100 µM (inactive)
same,GI50,HL-60,> 100 µM (inactive)
same,GI50,HOP-92,> 100 µM (inactive)
same,GI50,HOP-62,> 100 µM (inactive)
same,GI50,Malme-3M,> 100 µM (inactive)
same,GI50,SK-MEL-2,> 100 µM (inactive)
same,GI50,TK-10,> 100 µM (inactive)
same,GI50,MDA-MB-231,> 100 µM (inactive)
same,GI50,NCI/ADR-RES,> 100 µM (inactive)
same,GI50,ACHN,> 100 µM (inactive)
same,GI50,MOLT-4,> 10 µM (inactive)
same,GI50,T47D,> 100 µM (inactive)
same,GI50,COLO 205,> 100 µM (inactive)
same,GI50,HCC 2998,> 100 µM (inactive)
same,GI50,SW-620,> 100 µM (inactive)
same,GI50,MCF7,> 100 µM (inactive)
same,GI50,786-0,> 100 µM (inactive)
same,GI50,SF-295,> 100 µM (inactive)
same,GI50,OVCAR-8,> 100 µM (inactive)
same,GI50,Hs-578T,> 100 µM (inactive)
same,GI50,SK-OV-3,> 100 µM (inactive)
same,GI50,RPMI-8226,> 100 µM (inactive)
